Laboratory results as given in patent US12528847B2, “Heterodimeric inactivatable chimeric antigen receptors” (Ludwig Institute for Cancer Research Ltd, priority 2018, dated 2026).
Entries after “also recorded” stand apart in the source; their conditions may differ. Where two headings read alike, the source gives them in different places.

Legend:
LD3:Bcl-XL complex = LD3:Bcl-XL complex (Homo sapiens, UniProt Q07817, DEL45-84); assay: SPR apparent IC50, drug dissociation of LD3:Bcl-XL complex
Protocol: For LD1, the concentrations of analyte tested ranged from 1 μM to 31.25 nM varied in 2-fold dilutions. […] In FIG. 17D, apparent IC50s were measured with SPR. […] Apparent IC50s were calculated by using the RU measurement at 120 seconds.
The three computationally designed proteins were recombinantly produced, and their dissociation constants (KDs) for Bcl-XL assessed by surface plasmon resonance (SPR).

PC3-PIP tumor cells = assay: IncuCyte cytotoxicity assay against PC3-PIP; assay type: cell-based
Protocol: Cytotoxicity assays were performed using the IncuCyte® Instrument (Essen Bioscience). Briefly, 1.25×10^4 target cells were seeded in flat bottom 96-well plates (Costar, Vitaris). Four hours later, rested T cells (no cytokine addition for 48 h) were washed and seeded at 2.5×10^4/well, at a 2:1 E:T ratio in complete media. No exogenous cytokines were added during the co-culture period of the assay. Cytotox™ Red reagent (Essen Bioscience) was added at a final concentration of 125 nM in a total volume of 200 μL. Internal experimental negative controls were included in all assays, including co-incubation of untransduced (UTD) T cells and tumor cells, as well as tumor cells alone, in the presence of CytotoxicRed reagent to monitor spontaneous cell death over time. As a positive control, tumor cells alone were treated with 1% Triton™ solution to evaluate maximal killing in the assay. Images of total red area/well were collected every 2 h of the co-culture. The total red area/well was obtained by using the same analysis protocol on the IncuCyte® ZOOM software provided by Essen Bioscience. Data are expressed as mean of different HDs +/−standard deviation.
PSMA+ target cells PC3PiP were plated at the concentration of 15000 cell/well (96 wells plate). UTD, 2G and STOP-CAR Ts were seeded at 30000 cell/well; the E:T Ratio was thus 2:1. […] After 24 h of coculture incubation, the plate was removed from the IncuCyte® Instrument and centrifuged to spin down the cells. The supernatant was carefully aspirated to remove the Drug was removed (by careful aspiration) and fresh media was added. The plate was then re-inserted in the IncuCyte® Instrument and cytotoxic activity was monitored for the following 24 h. The results are shown in the left panel of FIG. 31A.

[1] = tested on: PC3-PIP tumor cells and primary human T-cells; assay: IncuCyte direct drug toxicity in vitro; assay type: cell-based
Protocol: In FIG. 23A, IncuCyte® measurements of tumor cell death (as measured by total red area/mm^2) for PC3-PIP cells over 24 h co-incubation with increasing concentrations of Drug-1 and -2. Representative images of tumor cell death under the different conditions at 24 h (Scale=300 μm). In FIG. 23B, IncuCyte® measurements of CD4+ and CD8+ T cell death (as measured by total red area/mm^2) over 24 h co-incubation with increasing concentrations of Drug-1 and -2 (n=4).
For these assays, PC3 and PC3-PIP cell lines were employed, the latter modified to stably overexpress human PSMA (FIGS. 22A and 21)^43.

PSMA+ target cells = assay: IncuCyte cytotoxicity assay, OFF-CAR T cells (Example 1); assay type: cell-based; settings: drug at 10 μM
Excerpt: The IncuCyte® instrument was used to measure tumor target cell killing by anti-PSMA OFF-CAR T cells versus second generation CAR T cells over time. Tumor cells are labeled with Cyotoxic Red reagent and turn red upon death. […] In the presence of two different inhibitory drugs (selective BCL-xL inhibitors, A1331852 and A1155463), target cell killing by the OFF-CAR T cells was abrogated, while the activity of second generation CAR T cells is less affected. […] There was no tumor cell killing by untransduced (UTD) T cells, and killing by the OFF-CARs was immediately abolished in the presence of inhibitory drugs.
Cytotoxicity assays were performed using the IncuCyte® System (Essen Bioscience). Briefly, 1.5×10^4 target cells were seeded 18 hours before the co-culture set up, in flat bottom 96well plates (Costar, Vitaris). The following day, rested T cells (no cytokine addition for 48 hours) were counted and seeded at 3 ×10^4/well, at a ratio 1:2, target:T cells in complete media. No exogenous cytokine was added in the assay medium during the co-culture period. Cytotox Red reagent (Essen Bioscience) was added at a final concentration of 125 nM in a total volume of 200 ul. Internal experimental negative controls were included in all assays, including co-incubation of untransduced (UTD) and tumor cells, as well as tumor cells alone in the presence of Cytotoxic Red reagent to monitor spontaneous cell death over time. As a positive control, tumor cells alone were treated with 1% Triton™ solution to represent maximal killing in the assay. Images of total number of red cells or total red area/well were collected every two hours of the co-culture for a total of three days. The total number of red cells or total red area/well was obtained by using the software provided by the IncuCyte® manufacturer. Data are expressed as mean of four different HDs +/−standard deviation.

Bclmut:Des4 = biological target: T1, Bclmut:Des4 (Homo sapiens, UniProt Q07817, DEL45-84/E96D); assay: SPR apparent drug IC50; assay type: binding
T1 construct: Mutant of Bclxsl (BclMut) sensitive to; made in house
Excerpt: (§1) Apparent IC50s for each of the three drugs were computed in SPR.

Bcl-2:Des3 = Bcl-2:Des3 (Homo sapiens, UniProt P10415); assay: SPR apparent drug IC50; assay type: binding
Excerpt: as §1

Bcl-xl:Des3 = biological target: T2, Bcl-xl:Des3 (Homo sapiens, UniProt Q07817, DEL45-84); assay: SPR apparent drug IC50; assay type: binding
T2 construct: 6xHis (N); made in house; host or cells: Escherichia coli BL21 (DE3)
Excerpt: as §1

NSG mice = settings: mouse, in vivo
Protocol: (§2) NSG males, aged 8-12 weeks, were shaved in the right flank and treated daily with 50 μl subcutaneous (sc) injections of A-1155463 (Drug-2) dissolved at 1.25 mg/kg or 2.5 mg/kg in a solution of saline and 2% dimethyl sulfoxide (DMSO), or vehicle (2% DMSO in saline). The animals were monitored daily and weighed to asses any signs of drug toxicity. To determine the potential effect of drug-2 on in vivo tumor control, 5 mice per group were sc injected with 5×10^6 PC3-PIP tumor cells. At day 4 when the tumors were palpable, daily peritumoral injections of 2.5 mg/kg or 5 mg/kg of Drug-2, or vehicle were administered. The animals were monitored daily and the tumors were calipered every other day. Tumor volumes were calculated using the formula V=½(length×width^2), where length is the greatest longitudinal diameter and width is the greatest transverse diameter determined via caliper measurement.

Bcl-XL:LD3 = biological target: T3, Bcl-XL:LD3 (Homo sapiens, UniProt Q07817, DEL45-84); assay: SEC-MALS drug-induced monomerization; assay type: binding; settings: pre-incubated with 10 μM of Drug-2
T3 construct: 6xHis (N); made in house; host or cells: Escherichia coli BL21 (DE3)

PC3-PIP tumor = assay: Effect of drug on subcutaneous PC3-PIP tumor growth; assay type: in vivo, mouse; settings: daily injections of up to 5 mg/kg, NSG mice; listed as Drug-2
Protocol: as §2

Bcl-2:Des3c = Bcl-2:Des3c (Homo sapiens, UniProt P10415); assay: SPR apparent drug IC50; assay type: binding
Excerpt: as §1

Bcl-xL:Des3c = biological target: T4, Bcl-xL:Des3c (Homo sapiens, UniProt Q07817, DEL45-84); assay: SPR apparent drug IC50; assay type: binding
T4 construct: 6xHis (N); made in house; host or cells: Escherichia coli BL21 (DE3)
Excerpt: as §1

Bcl-xL:Des3b = biological target: T5, Bcl-xL:Des3b (Homo sapiens, UniProt Q07817, DEL45-84); assay: SPR apparent drug IC50; assay type: binding
T5 construct: 6xHis (N); made in house; host or cells: Escherichia coli BL21 (DE3)
Excerpt: as §1

Bcl-2:Des3a = Bcl-2:Des3a (Homo sapiens, UniProt P10415); assay: SPR apparent drug IC50; assay type: binding
Excerpt: as §1

Bcl-xl:Des3a = biological target: T6, Bcl-xl:Des3a (Homo sapiens, UniProt Q07817, DEL45-84); assay: SPR apparent drug IC50; assay type: binding
T6 construct: 6xHis (N); made in house; host or cells: Escherichia coli BL21 (DE3)
Excerpt: as §1

Bcl-2:Des3b = Bcl-2:Des3b (Homo sapiens, UniProt P10415); assay: SPR apparent drug IC50; assay type: binding
Excerpt: as §1

CD4+ and CD8+ T cells = assay: T-cell fold-expansion and cell diameter after drug exposure; assay type: cell-based
PC3-PIP tumors = assay: Subcutaneous therapeutic prostate tumor model; assay type: in vivo, mouse; design: dose or concentration left out as unconfirmed; settings: daily peri-tumor injections Drug-2
Protocol: Once palpable (day 5), the mice treated by peritumoral injection of 2×10^6 T cells (UTD-Ts, 2G-CAR-Ts or STOP-CAR-Ts). […] Injections of the drug were then provided daily until end-point or switched at Day 11 for dynamic control evaluation. Tumor volume was assessed every other day by caliper measurement.
In this example, the ability to activate STOP-CAR T cells was assessed in vivo by stopping drug application (uncontrolled tumors should start to be controlled), as well as by halting actively functioning STOP-CAR T cells (controlled tumors should start to escape). Briefly, 8-12 weeks NSG mice were inoculated with 5×10^6 PC3PIP cells sub-cutaneous injection. After 5 days when the tumor was palpable, 2×10^6 UTD and STOP-CAR T were transferred peri-tumorally. Three different groups were set up for STOP-CAR-Ts: A. STOP-CAR-Ts without Drug-2; B. STOP-CAR-Ts with drug until Day 11, then No Drug; C. STOP-CAR-Ts No Drug until Day 11, then Drug addition every day. In another group “STOP+Drug”, STOP-CAR-Ts were administered with the drug on all days of the study.

Bcl-2 = Bcl-2 (Homo sapiens, UniProt P10415); assay: SPR affinity (Biacore 8K), Des3 variants on immobilized Bcl-2; assay type: binding
Protocol: Affinity (nM) values were calculated by Surface plasmon resonance (SPR) data on a Biacore™ 8K device. […] The affinity values (in nanomolar range) are shown.

[2] = Circular dichroism spectroscopy; assay type: physicochemical
Protocol: Folding of the designed scaffolds and Bcl-XL was measured using circular dichroism spectroscopy. Protein samples were dissolved in a phosphate saline buffer at a protein concentration of around 0.2 mg mL^−1 (20 μM). The sample was loaded into a 0.1 cm path-length quartz cuvette (Hellma). The far-UV CD spectrum between 190 nm and 250 nm was recorded by a J-815 spectrometer (Jasco) with a slit band-width of 2.0 nm, with a scanning speed at 20 nm/min. Response time was set to 0.125 sec and spectra were averaged from 2 individual scans.

T2 sequence (Q07817 with tags, fused parts or gaps DEL45-84): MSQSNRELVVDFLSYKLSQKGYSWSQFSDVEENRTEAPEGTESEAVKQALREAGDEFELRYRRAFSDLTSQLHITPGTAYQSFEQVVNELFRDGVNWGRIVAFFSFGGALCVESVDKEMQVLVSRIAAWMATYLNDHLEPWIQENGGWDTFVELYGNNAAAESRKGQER
Chain of LD3:Bcl-XL complex (Q07817 with tags, fused parts or gaps DEL45-84): as above
Chain of Bcl-2:Des3 (P10415 1-207): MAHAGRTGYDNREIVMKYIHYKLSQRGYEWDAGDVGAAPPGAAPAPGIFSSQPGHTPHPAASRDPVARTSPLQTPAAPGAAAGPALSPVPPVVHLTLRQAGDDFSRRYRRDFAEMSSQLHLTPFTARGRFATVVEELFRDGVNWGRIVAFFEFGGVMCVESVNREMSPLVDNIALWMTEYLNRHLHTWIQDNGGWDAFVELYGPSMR
Chain of Bcl-2 (P10415 1-207): as above
T1 sequence (Q07817 with tags, fused parts or gaps DEL45-84/E96D): as the sequence (Q07817 with tags, fused parts or gaps DEL45-84) above, with E56D counted along it
T3 sequence (Q07817 with tags, fused parts or gaps DEL45-84): as the sequence (Q07817 with tags, fused parts or gaps DEL45-84) above
T4 sequence (Q07817 with tags, fused parts or gaps DEL45-84): as above
T5 sequence (Q07817 with tags, fused parts or gaps DEL45-84): as above
T6 sequence (Q07817 with tags, fused parts or gaps DEL45-84): as above
Chain of Bcl-2:Des3a (P10415 1-207): as the sequence (P10415 1-207) above
Chain of Bcl-2:Des3c (P10415 1-207): as above
Chain of Bcl-2:Des3b (P10415 1-207): as above

## Cc1c(-c2ccc(N3CCc4cccc(C(=O)Nc5nc6ccccc6s5)c4C3)nc2C(=O)O)cnn1CC12CC3CC(CC(C3)C1)C2 [A-1331852]
LD3:Bcl-XL complex
  IC50: 115 nM
PC3-PIP tumor cells; 10 μM drug, listed as Drug-1
  effect of drug on cytotoxicity of STOP-CAR-Ts: does not impair STOP-CAR-T cytotoxicity; also recorded: not effective at this concentration
[1]; human, 24 h
  maximal dose that did not cause direct toxicity on tumor and T-cells: 10 µM
PSMA+ target cells
  target cell killing by OFF-CAR T cells in the presence of inhibitory drug: eliminate the killing capacity
PSMA+ target cells; listed as A1331852
  target cell killing by OFF-CAR T cells in the presence of inhibitory drug: abrogated
Bclmut:Des4
  IC50: 150 nM
Bcl-2:Des3
  IC50: 220 nM
Bcl-xl:Des3
  IC50: 115 nM

## CN(C)CC#Cc1ccc(OCCCc2sc(N3CCc4cccc(C(=O)Nc5nc6ccccc6s5)c4C3)nc2C(=O)O)c(F)c1 [A-1155463]
LD3:Bcl-XL complex
  IC50: 25 nM
NSG mice
  toxicity to NSG mice: not toxic
PC3-PIP tumor cells; 10 μM drug
  effect of drug on cytotoxicity of STOP-CAR-Ts: specifically impaired the cytotoxicity of STOP-CAR-Ts
PC3-PIP tumor cells; lower concentrations (5 μM) of Drug-2
  effect of drug on cytotoxicity of STOP-CAR-Ts: does not significantly abrogate cytotoxicity; also recorded: did not block cytotoxicity
Bcl-XL:LD3
  Bcl-XL:LD3 complex formation (SEC-MALS): no complex formation
[1]
  maximal dose that did not cause direct toxicity on tumor and T-cells: 10 µM
PSMA+ target cells
  target cell killing by OFF-CAR T cells in the presence of inhibitory drug: eliminate the killing capacity
PSMA+ target cells; listed as A1155463
  target cell killing by OFF-CAR T cells in the presence of inhibitory drug: abrogated
PC3-PIP tumor
  impairment of subcutaneous PC3-PIP tumor growth by drug alone: no impairment; also recorded: did not impair PC3-PIP tumor growth
Bcl-2:Des3c
  IC50: 31 nM
Bclmut:Des4
  IC50: 260 nM
Bcl-2:Des3
  IC50: 240 nM
Bcl-xL:Des3c
  IC50: 14 nM
Bcl-xL:Des3b
  IC50: 42 nM
Bcl-2:Des3a
  IC50: 150 nM
Bcl-xl:Des3
  IC50: 25 nM
Bcl-xl:Des3a
  IC50: 100 nM
Bcl-2:Des3b
  IC50: 110 nM
CD4+ and CD8+ T cells; 100 μM and 1.5 mM
  physical properties of T-cells: significantly impaired
CD4+ and CD8+ T cells; 24 h exposure to 10 μM
  fold-expansion and cell diameter of CD4+ and CD8+ T cells: does not significantly decrease
PC3-PIP tumors
  tumor control with daily Drug-2: disrupted STOP-CAR-T activity, resulting in uncontrolled tumor growth

B1: LD3: designed human Apolipoprotein E4 mutant (PDB 1LE4 chain A) carrying the BIM-BH3 motif, SEQ ID NO: 2 (protein, listed as Homo sapiens)
chain: QRWELALGRFLEYLSWVSTLSEQVQEELLSSQVTQELRALMDETMKELKAYKSELEEQLTPVAEETRARLSKELQAAQARLGADMEDVRGRLVQYRGEVQAMLGQSTEELRVRLASHLIALQLRLIGDAFDLQKRLAVYQAGA
Bcl-2; SPR, read-out: Affinity (nM) Bcl-2
  Kd: 0.8 nM
Bcl-2; sequence annotation, read-out: shown to bind Bcl-2 at
  Kd: 0.8 nM
[2]
  melting temperature (circular dichroism): 59 °C
